Series [1] addresses T1, two-pore channel 2 (TPC2) (Homo sapiens, UniProt Q8NHX9, L11A/L12A).
T1 construct: gene TPCN2; human TPC2, C-terminally RFP-tagged, rerouted to the plasma membrane (hTPC2L11A/L12A)
Nature of the series: fluo-4 Ca2+ FLIPR assay in HEK293 cells stably expressing hTPC2, stimulated with TPC2-A1-P or TPC2-A1-N. Format: cell-based.

In series [2] the target is T2, P-glycoprotein (P-gp) (Homo sapiens, UniProt P08183).
T2 construct: gene ABCB1; P-glycoprotein overexpressing VCR-R CEM cells
T2 sequence (P08183 whole entry): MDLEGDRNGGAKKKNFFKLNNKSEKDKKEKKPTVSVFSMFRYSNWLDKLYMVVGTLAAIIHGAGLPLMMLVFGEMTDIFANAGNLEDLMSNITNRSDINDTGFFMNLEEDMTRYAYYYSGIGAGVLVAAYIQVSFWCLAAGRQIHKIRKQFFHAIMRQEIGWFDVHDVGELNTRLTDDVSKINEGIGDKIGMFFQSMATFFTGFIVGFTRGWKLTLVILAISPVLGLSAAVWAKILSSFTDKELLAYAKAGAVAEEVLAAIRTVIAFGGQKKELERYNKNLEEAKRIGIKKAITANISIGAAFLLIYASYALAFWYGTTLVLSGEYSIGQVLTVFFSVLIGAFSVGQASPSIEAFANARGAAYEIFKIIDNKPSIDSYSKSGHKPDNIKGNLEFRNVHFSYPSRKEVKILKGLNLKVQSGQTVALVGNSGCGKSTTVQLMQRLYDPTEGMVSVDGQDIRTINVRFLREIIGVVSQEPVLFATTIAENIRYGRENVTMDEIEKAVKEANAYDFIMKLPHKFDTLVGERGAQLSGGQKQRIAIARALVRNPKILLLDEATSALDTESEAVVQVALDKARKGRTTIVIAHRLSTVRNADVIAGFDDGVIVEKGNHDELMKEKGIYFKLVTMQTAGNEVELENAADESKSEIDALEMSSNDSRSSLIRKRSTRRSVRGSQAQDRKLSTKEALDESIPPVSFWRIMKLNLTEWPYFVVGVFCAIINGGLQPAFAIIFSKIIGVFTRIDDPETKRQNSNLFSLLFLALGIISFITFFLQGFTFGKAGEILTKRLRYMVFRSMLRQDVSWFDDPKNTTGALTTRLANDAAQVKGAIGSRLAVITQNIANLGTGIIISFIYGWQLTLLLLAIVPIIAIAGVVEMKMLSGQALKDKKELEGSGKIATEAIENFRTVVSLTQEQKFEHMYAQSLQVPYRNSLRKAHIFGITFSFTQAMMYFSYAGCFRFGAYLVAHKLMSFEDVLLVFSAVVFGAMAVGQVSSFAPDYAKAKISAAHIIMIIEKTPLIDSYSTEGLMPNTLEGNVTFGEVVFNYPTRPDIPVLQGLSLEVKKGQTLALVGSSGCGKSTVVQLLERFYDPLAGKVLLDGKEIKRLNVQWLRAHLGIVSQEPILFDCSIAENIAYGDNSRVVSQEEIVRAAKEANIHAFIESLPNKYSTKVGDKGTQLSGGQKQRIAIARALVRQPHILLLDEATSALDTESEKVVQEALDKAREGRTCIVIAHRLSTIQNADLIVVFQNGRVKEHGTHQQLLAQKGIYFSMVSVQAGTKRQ
Nature of the series: calcein-AM retention by flow cytometry in VCR-R CEM cells at […]. Format: cell-based.

T1 sequence (Q8NHX9 whole entry L11A/L12A): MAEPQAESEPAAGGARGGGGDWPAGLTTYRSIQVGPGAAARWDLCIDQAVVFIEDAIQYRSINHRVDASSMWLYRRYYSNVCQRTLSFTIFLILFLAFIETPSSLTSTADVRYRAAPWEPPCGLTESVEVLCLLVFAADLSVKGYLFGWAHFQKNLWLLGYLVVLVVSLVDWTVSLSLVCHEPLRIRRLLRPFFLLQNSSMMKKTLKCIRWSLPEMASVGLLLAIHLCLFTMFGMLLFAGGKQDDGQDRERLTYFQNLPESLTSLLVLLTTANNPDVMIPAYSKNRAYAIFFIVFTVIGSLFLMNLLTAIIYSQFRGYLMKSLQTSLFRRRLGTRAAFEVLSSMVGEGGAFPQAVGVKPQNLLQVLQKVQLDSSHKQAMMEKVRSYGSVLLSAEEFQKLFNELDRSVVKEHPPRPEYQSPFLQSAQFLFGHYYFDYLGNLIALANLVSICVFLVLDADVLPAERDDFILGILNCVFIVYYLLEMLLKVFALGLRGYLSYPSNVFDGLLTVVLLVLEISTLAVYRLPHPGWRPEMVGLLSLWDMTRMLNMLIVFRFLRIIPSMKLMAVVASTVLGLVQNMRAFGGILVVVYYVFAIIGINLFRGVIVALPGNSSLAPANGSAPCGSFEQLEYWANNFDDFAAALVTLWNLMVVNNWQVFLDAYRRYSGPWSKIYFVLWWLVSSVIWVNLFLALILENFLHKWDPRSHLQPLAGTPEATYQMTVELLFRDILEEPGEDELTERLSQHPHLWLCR

Consider `COc1ccc2cc1Oc1ccc(cc1)C[C@H]1c3c(cc4c(c3Oc3cc5c(cc3OC)CCN(C)[C@@H]5C2)OCO4)CCN1C` [cepharanthine], for which, in series [1], the IC50 is 3.6/57 µM. With `COc1ccc2cc1Oc1ccc(cc1)C[C@H]1c3cc(c(OC)cc3CCN1C)Oc1c(OC)c(OC)cc3c1[C@H](C2)N(C)CC3` [tetrandrine], the IC50 in series [1] is 31/21 µM. Also, in series [2], the “calcein-AM retention by flow cytometry in VCR-R CEM cells at 10 μM” value is “indicating no P-glycoprotein inhibition. Tetrandrine served as positive control (Figure 5C)”.

Source of the values: paper PMC8576818, “The ethoxycarbonyl group as both activating and protective group in N-acyl-Pictet–Spengler reactions using methoxystyrenes. A short approach to racemic 1-benzyltetrahydroisoquinoline alkaloids” (Beilstein Journal of Organic Chemistry, 2021).
